The values that follow come from patent publication US20260027243A1, “AMPHIPHILIC COMPOUNDS FOR ATTENUATING NEUROTOXICITY OF AMYLOID-beta OLIGOMERS AND DIAGNOSTIC METHODS” (THE BOARD OF TRUSTEES OF THE UNIVERSITY OF ILLINOIS, priority 2022, published 2026).

A word on the Kd: it is a measure of binding affinity in units of concentration. The logD is lipophilicity at a set pH, counting ionised and neutral species.

One series concerns the target Aβ oligomers. As to conditions: cited from earlier work.
A short description of series [1]: Log D by octanol-PBS partition. The following applies: DCM compounds. The series is classed as physicochemical. As for the experimental part:
Log D measurements. The Log D value was measured following a published procedure using slight modifications. In general, compounds in 0.5 mL octanol was subjected to partition with 0.5 mL octanol-saturated PBS. The whole mixture was stirred vigorously for 5 min, and centrifuged at 2,000 rpm for 5 min. The top octanol layer was separated for later fluorescence measurement. The remaining PBS layer was partitioned with 0.5 mL PBS-saturated octanol, and the second top octanol layer was then separated after vigorous stirring and centrifuging at 2,000 rpm for another 5 min. The two octanol layers' fluorescence spectra were recorded. The log D value was calculated by the fluorescence intensity ratio at the compounds' emission wavelength for the above two octanol extractions.

The target in a further series is T1, Aβ42 oligomers (Homo sapiens, UniProt P05067).
T1 construct: commercial Aβ42 monomer powder (from GL biochem); purchased GL biochem
The series can be described thus: Fluorescence saturation binding assay with Aβ42 oligomers. The following applies: for Kd: read-out: Kd, Oligomers; for binding affinity to oligomers compared with fibrils (Kd comparison): amphiphilic ZY compounds. The procedure:
Aβ42 oligomers: The 0.5 mg monomeric films were dissolved in 1.1 mL PBS buffer (with final DMSO concentration less than 1%) and incubated at 4° C. overnight. The resulting solution was then centrifuged at 3000 rpm for 15 mins to remove the insoluble aggregates. The clear supernatant was then used for the following experiments. Aβ42 oligomers concentration was checked by measuring the absorbance of the supernatant at 280 nm.
(§1) In Vitro Saturation Binding Studies with Aβ42 Fibrils and Aβ42 Oligomers. To a solution of increasing concentrations of compounds, a fixed concentration of the generated aggregated Aβ42 fibrils or Aβ42 oligomers solutions (5 to 15 NM) was added to yield a total volume of 100 μL. Nonspecific binding was determined […]. The mixture was incubated for 15 min at room temperature. All fluorescence data were obtained on a SpectraMax M2e plate reader (Molecular Devices). The fluorescent intensity was measured at the corresponding emission wavelength of each compound, and the Kd binding curves were generated by GraphPad Prism 8.0 with one site-specific binding model. Equation: Y=Bmax*X/(Kd+X).

Another series deals with T2, Aβ42 fibrils (Homo sapiens, UniProt P05067).
T2 construct: commercial Aβ42 monomer powder (from GL biochem); purchased GL biochem
Kind of series: Fluorescence saturation binding assay with Aβ42 fibrils. As to conditions: read-out: Kd, Fibrils. As for the experimental part: Preparation of the Aβ42 Fibrils and Aβ42 Oligomers. Aβ42 fibrils: 1 mg of commercial Aβ42 monomer powder (from GL biochem) was dissolved in 1 mL 1,1,1,3,3,3-hexafluoro-2-propanol (HFIP) at room temperature and incubated for 1 h. The resulting solution was divided equally into two Eppendorf tubes. The solution in each Eppendorf tube containing 0.5 mg Aβ42 monomer was then evaporated overnight and dried by vacuum centrifuge to generate monomeric films. […] Aβ42 fibrils solution was prepared by dissolving the 0.5 mg monomeric films in 1.1 mL PBS buffer (with final DMSO concentration less than 1%) and stirring at 37° C. for 3 days.
as §1

In series [2] the test system is Cu^2+-Aβ42-induced toxicity in Neuro2A cells. Kind of series: Cu2+-Aβ42-induced toxicity, Alamar blue cell viability. It is filed as cell-based, mouse. The following applies: [Aβ42]=40 μM, [Cu^2+]=40 μM, compound 10 μM (ZY-12-OMe 5 μM). The procedure: FIG. 6. Cell viability results upon incubation of Neuro2A cells with monomeric Aβ42 in the presence or absence of metal ions and amphiphilic compounds. Concentrations: [Aβ42]=40 μM, [Cu^2+]=40 μM, [ZY-12-MT]=[ZY-15-OMe]=[ZY-15-MT]=[ZY-17-MT]=[ZY-5-OMe]=[ZY-5-MT]=[ZY-5-DT]=10 μM, [ZY-12-OMe]=5 μM. The error bars represent the standard deviation from five independent experiments, and the statistical analysis was evaluated according to one-way ANOVA (*p<0.05).
For the Cu^2+-Ap-induced toxicity studies, cells treated were monomeric Aβ42, Cu^2+, monomeric Aβ42+Cu^2+, and monomeric Aβ42+Cu^2++ compounds, respectively. After 40 h incubation, Alamar Blue solution (10 μL) was added, and the cells were incubated for another 90 min at 37° C. The fluorescence intensity of each well was measured at 590 nm (excitation wavelength=560 nm).
In general terms: Alamar Blue is a resazurin reagent that responds to reducing activity.

The subject of series [3] is mouse neuroblastoma N2a cells. The series can be described thus: Alamar blue cytotoxicity in N2a cells. The series is classed as cell-based. As to conditions: for relative cytotoxicity: comparison among compounds. As for the experimental part: Cytotoxicity Studies. Alamar Blue assay was chosen for the cytotoxicity studies. Mouse neuroblastoma Neuro2A (N2A) cells were grown with DMEM/10% FBS in a petri dish at 37° C. in a humidified atmosphere with 5% CO2. Then N2A cells were seeded in a 96-well plate (1.0×10^4/well). After 24 h incubation, cell media was changed to DMEM/N-2, and N2A cells were incubated for another 1 h. Then the cells were treated with different concentrations of compounds for 40 h, Alamar Blue solution (10 μL) was added, and the cells were incubated for another 90 min at 37° C. The fluorescence intensity of each well was measured at 590 nm (excitation wavelength=560 nm).

Where two headings read alike, the source gives them in different places.

T2 sequence (P05067 672-713 limits assumed): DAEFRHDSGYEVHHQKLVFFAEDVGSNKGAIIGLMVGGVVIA
T1 sequence (P05067 672-713 limits assumed): as above

Regarding `CCOc1cccc(C=Cc2cc(C)c3n2[B-](F)(F)[N+]2=C(CCC(=O)OCC(Cl)(Cl)Cl)C=CC2=C3)c1O` [BD-Oligo], on Aβ oligomers (reported oligomer-selective probes), the equilibrium dissociation constant (Kd) was 400 nM.
`CCN(CC)c1ccc(/C=C/C2=[O+][B-](F)(F)OC(/C=C/c3ccc(N(CC)CC)nc3)=C2CCCOc2c(C)cccc2C)cn1` [CRANAD-102]: the Kd on Aβ oligomers (reported values) is 7.5 nM.
In series [1], `CN1CCN(C)CCN(Cc2cc(/C=C/C3=CC(=C(C#N)C#N)c4ccccc4O3)cc(CN3CCN(C)CCN(C)CC3)c2O)CC1` [DCM-OH-1-DT, (E)-2-(2-(3,5-bis((4,7-dimethyl-1,4,7-triazonan-1-yl)methyl)-4-hydroxystyryl)-4H-chromen-4-ylidene)malononitrile] had a log distribution coefficient (logD) of 1.51 ± 0.018. In addition, the equilibrium dissociation constant (Kd) on Aβ42 oligomers (Table 3, DCM compounds) amounted to 2880 ± 540 nM; on Aβ42 fibrils (Table 3, DCM compounds), 1850 ± 190 nM.
Turning to `CN1CCN(C)CCN(Cc2cc(/C=C/C3=CC(=C(C#N)C#N)c4ccccc4O3)ccc2O)CC1` [DCM-OH-1-MT, (E)-2-(2-(3-((4,7-dimethyl-1,4,7-triazonan-1-yl)methyl)-4-hydroxystyryl)-4H-chromen-4-ylidene)malononitrile], the logD in series [1] stood at 1.65 ± 0.06. For the same molecule, the Kd on Aβ42 oligomers (Table 3, DCM compounds) came out at 670 ± 190 nM; at Aβ42 fibrils (Table 3, DCM compounds) it was 580 ± 70 nM.
Turning to `N#CC(C#N)=C1C=C(/C=C/c2ccc(O)cc2)Oc2ccccc21` [DCM-OH-1], the log distribution coefficient (logD) in series [1] was 1 ± 0.04.
As to `CN1CCN(C)CCN(Cc2cc(/C=C/c3ccc(-c4ccc(N(C)C)cc4)s3)cc(CN3CCN(C)CCN(C)CC3)c2O)CC1` [ZY-5-DT, (E)-2,6-bis((4,7-dimethyl-1,4,7-triazonan-1-yl)methyl)-4-(2-(5-(4-(dimethylamino)phenyl)thiophen-2-yl)vinyl)phenol], the Kd is 2090 ± 360 nM at Aβ42 oligomers (Table 1, amphiphilic compounds) and 1670 ± 190 nM on Aβ42 fibrils (Table 1, amphiphilic compounds).
On to `CN1CCN(C)CCN(Cc2cc(/C=C/c3ccc(-c4ccc(N(C)C)cc4)s3)ccc2O)CC1` [ZY-5-MT, (E)-2-((4,7-dimethyl-1,4,7-triazonan-1-yl)methyl)-4-(2-(5-(4-(dimethylamino)phenyl)thiophen-2-yl)vinyl)phenol], for which the dissociation constant (Kd) was 460 ± 60 nM on Aβ42 oligomers (Table 1, amphiphilic compounds) and 1820 ± 130 nM on Aβ42 fibrils (Table 1, amphiphilic compounds). Besides, the “binding affinity to oligomers compared with fibrils (Kd comparison)” value on Aβ42 oligomers is “higher binding affinity to oligomers over fibrils”. The “selectivity to Aβ oligomers over Aβ fibrils” value at Aβ42 oligomers (ratio of Kd values) was 3.9 times.
With `COc1cc(/C=C/c2ccc(-c3ccc(N(C)C)cc3)s2)cc(CN2CCN(C)CCN(C)CC2)c1O` [ZY-5-OMe, (E)-2-((4,7-dimethyl-1,4,7-triazonan-1-yl)methyl)-4-(2-(5-(4-(dimethylamino)phenyl)thiophen-2-yl)vinyl)-6-methoxyphenol], the “effect on cell viability under Cu^2+-Aβ42 toxicity” value in series [2] is given as “significantly increase cell viability”. In addition, the Kd on Aβ42 oligomers (Table 1, amphiphilic compounds) turned out to be 1040 ± 150 nM; at Aβ42 fibrils (Table 1, amphiphilic compounds) it was 680 ± 100 nM.
`CN1CCN(C)CCN(Cc2cc(-c3ccc(/C=C/c4ccc(N(C)C)cc4)s3)cc(CN3CCN(C)CCN(C)CC3)c2O)CC1` [ZY-12-DT, (E)-2,6-bis((4,7-dimethyl-1,4,7-triazonan-1-yl)methyl)-4-(5-(4-(dimethylamino)styryl)thiophen-2-yl)phenol]: the relative cytotoxicity entry in series [3] was “higher citotoxicity than others”. Also, the equilibrium dissociation constant (Kd) at Aβ42 oligomers (Table 1, amphiphilic compounds) amounted to 670 ± 150 nM; on Aβ42 fibrils (Table 1, amphiphilic compounds) it was 1380 ± 240 nM. The “binding affinity to oligomers compared with fibrils (Kd comparison)” value on Aβ42 oligomers was “higher binding affinity to oligomers over fibrils”.
As for `CN1CCN(C)CCN(Cc2cc(-c3ccc(/C=C/c4ccc(N(C)C)cc4)s3)ccc2O)CC1` [ZY-12-MT, (E)-2-((4,7-dimethyl-1,4,7-triazonan-1-yl)methyl)-4-(5-(4-(dimethylamino)styryl)thiophen-2-yl)phenol], in series [2], the “effect on cell viability under Cu^2+-Aβ42 toxicity” value is “significantly increase cell viability”. In addition, the dissociation constant (Kd) is 6270 ± 1010 nM at Aβ42 oligomers (Table 1, amphiphilic compounds) and 4190 ± 870 nM at Aβ42 fibrils (Table 1, amphiphilic compounds).
For the molecule `COc1cc(-c2ccc(/C=C/c3ccc(N(C)C)cc3)s2)cc(CN2CCN(C)CCN(C)CC2)c1O` [ZY-12-OMe, (E)-2-((4,7-dimethyl-1,4,7-triazonan-1-yl)methyl)-4-(5-(4-(dimethylamino)styryl)thiophen-2-yl)-6-methoxyphenol], the values for the cell viability result in series [3] (at 5 μM) and in series [3] (at 10 μM) were “more than 75%” and “less than 50%”, respectively. Moreover, in series [3], the relative cytotoxicity entry is on record as “higher citotoxicity than others”. For the same molecule, the dissociation constant Kd on Aβ42 oligomers (Table 1, amphiphilic compounds) turned out to be 320 ± 40 nM; at Aβ42 fibrils (Table 1, amphiphilic compounds), 390 ± 40 nM. The “binding affinity to oligomers compared with fibrils (Kd comparison)” value on Aβ42 oligomers is listed as “higher binding affinity to oligomers over fibrils”.
As for `CN1CCN(C)CCN(Cc2cc(/C=C/c3ccc(-c4ccc(C=O)cc4)s3)cc(CN3CCN(C)CCN(C)CC3)c2O)CC1` [ZY-15-DT, (E)-4-(5-(3,5-bis((4,7-dimethyl-1,4,7-triazonan-1-yl)methyl)-4-hydroxystyryl)thiophen-2-yl)benzaldehyde], the equilibrium dissociation constant (Kd) on Aβ42 oligomers (Table 1, amphiphilic compounds) turned out to be 4550 ± 320 nM; at Aβ42 fibrils (Table 1, amphiphilic compounds) it was 1270 ± 100 nM.
As to `COc1cc(OC)cc(-c2ccc(/C=C/c3cc(CN4CCN(C)CCN(C)CC4)c(O)c(CN4CCN(C)CCN(C)CC4)c3)cc2)c1` [ZY-17-DT, (E)-4-(2-(3′,5′-dimethoxy-[1,1′-biphenyl]-4-yl)vinyl)-2,6-bis((4,7-dimethyl-1,4,7-triazonan-1-yl)methyl)phenol], the relative cytotoxicity result in series [3] was “higher citotoxicity than others”. For the same molecule, the dissociation constant Kd at Aβ42 oligomers (Table 1, amphiphilic compounds) was found to be 1030 ± 200 nM; on Aβ42 fibrils (Table 1, amphiphilic compounds), 2250 ± 460 nM. The “binding affinity to oligomers compared with fibrils (Kd comparison)” value at Aβ42 oligomers is “higher binding affinity to oligomers over fibrils”.
Regarding `COc1cc(OC)cc(-c2ccc(/C=C/c3ccc(O)c(CN4CCN(C)CCN(C)CC4)c3)cc2)c1` [ZY-17-MT, (E)-4-(2-(3′,5′-dimethoxy-[1,1′-biphenyl]-4-yl)vinyl)-2-((4,7-dimethyl-1,4,7-triazonan-1-yl)methyl)phenol], the dissociation constant (Kd) on Aβ42 oligomers (Table 1, amphiphilic compounds) stood at 2080 ± 340 nM; at Aβ42 fibrils (Table 1, amphiphilic compounds), 940 ± 70 nM.
Turning to `COc1cc(OC)cc(-c2ccc(/C=C/c3cc(CN4CCN(C)CCN(C)CC4)c(O)c(OC)c3)cc2)c1` [ZY-17-OMe, (E)-4-(2-(3′,5′-dimethoxy-[1,1′-biphenyl]-4-yl)vinyl)-2-((4,7-dimethyl-1,4,7-triazonan-1-yl)methyl)-6-methoxyphenol], the relative cytotoxicity result in series [3] is reported as “the highest toxicity”. The equilibrium dissociation constant (Kd) stood at 120 nM on Aβ42 oligomers (Table 1, amphiphilic compounds) and 180 ± 20 nM on Aβ42 fibrils (Table 1, amphiphilic compounds). The “binding affinity to oligomers compared with fibrils (Kd comparison)” value on Aβ42 oligomers is listed as “higher binding affinity to oligomers over fibrils”.
